According to patent US20110105408A1, “THERAPEUTIC PEPTIDES” (INTER-K PTY LIMITED, priority 2008, published 2011):
Entries after “also recorded” stand apart in the source; their conditions may differ.

Columns and labels:
HT29 colon cancer cells = assay: Cell proliferation (MTT) assay, HT29 cells; format: cell-based, human
Procedure: Single cell suspensions of viable trypsinised cells were seeded into 96-well tissue culture plates at a density of 2×10^3 cells per well in a volume of 100 μl of a suitable culture media with foetal calf serum (FCS) (e.g., Dulbecco's Modified Eagles Medium (DMEM), with 10% v/v FCS, glutamine, Hepes, and antibiotics). A set of triplicate wells was prepared for each concentration of the peptide dendrimer being tested. Additional sample wells containing untreated cells or media alone were set up in each treatment plate and processed in parallel as reference controls. A zero-time plate of untreated cells and media-alone wells was simultaneously prepared and an MTT assay carried out on this plate at the time of test peptide dendrimer addition to treatment plates. All plates were cultured for 24 hours before addition of the test dendrimer. To prepare the MTT solution 100 mg of MTT (3-(4,5-dimethylthiazolyl-2)-2,5-diphenyltetrazolium bromide) (Cat #. M-128, Sigma, St Louis Mo.), is mixed with 20 ml of PBS at pH 7.4. The resulting solution is filter sterilized (0.2 μM syringe filter) and stored at 4° C. protected from light until use. MTT substrate is cleaved in growing cells to yield a water insoluble salt. After solubilisation of the salt crystals, a coloured product is produced the measurement of which allows quantitation of the proliferative activity of the cultured cells.
Appropriate concentrations of the test dendrimer were prepared by dilution of freshly prepared sterile 1 mM stock solutions into cell culture media to give a final well volume of 200 μl containing 10% v/v FCS. The zero-plate was processed by addition of MTT at this time. Cell culture was continued for a further 24 or 48 hours before addition of 20 μl of MTT in PBS (5 mg/ml, 0.2 um filter sterilised). The MTT cell proliferation assay measures cell proliferation rate and, in instances where cell viability is compromised, the assay indicates a comparative reduction in cell viability. After a 3 hour incubation in the presence of MTT (5% CO2 in air at 37° C.), plates were centifuged at 450 g for 5 minutes, supernatant removed by gentle suction and precipitated tetrazolium salt resuspended into 150 μl DMSO:glycine (0.1 M glycine, 0.1 M NaCl pH 10.5) (6:1 v/v) solution. Plates were gently vortexed to complete solubilisation of crystalline material and absorbance was read at 540-550 nm using a microplate reader. Sample data were processed to determine the comparative growth of treated samples relative to untreated controls.
HT29 cells were cultured for 48 hours in the presence of selected dendrimers and proliferation of the cells was assessed by MTT assay essentially as described in Example 1.2. The results were calculated as percentage proliferation of control cells (not treated with dendrimer).

[1] = tested on: HT29 human colorectal adenocarcinoma tumour; assay: Inhibition of HT29 tumour growth in a mouse model, intra-tumoural injection; format: in vivo, Mouse (Mus musculus) BALB/c nu/nu; settings: for Tumour volume, Delta avg: change in volume from day 0
Procedure: HT29 human colorectal adenocarcinoma cells were cultured in RPMI 1640 cell culture medium supplemented with 10% v/v FCS and 50 IU/mL penicillin-streptomycin. The cells were harvested by trypsinisation, washed twice in HBSS and counted. The cells were then resuspended in HBSS to a final concentration of 2×10^7 cells/mL.
• Species: Mouse (Mus musculus) • Strain: BALB/c nu/nu • Source: University of Adelaide (Waite Campus, Urrbrae, SA, Australia) • Total number of animals in study: 20 females • Number of study groups: 2 (1 test, 1 control) • Number of mice per group: 10 • Body weight range: 20.61-25.27 g at onset of treatment (mean 22.27 g) • Age range: 10-12 weeks at onset of treatment.
Prior to inoculation the skin on the injection site (dorsal right flank) was swabbed with alcohol. The needle was introduced through the skin into the subcutaneous space just below the animal's right shoulder, and 100 μL of cells (2×10^6 cells) were discharged. The treatment of mice began nine days after HT29 cell inoculation, the average tumour volume was 68 mm^3 (average variability of 6.1%).
Body weight and tumour dimensions (length and diameter) were measured for all animals on the first day of treatment (day 0) and then three times per week, including the termination day of the study (Day 24).
Mice were randomized, based on body weight, into two groups of ten mice on Day 0 of the study. The peptide dendrimer IK248B presenting 10 monomer units of the peptide RSKAKNPLYR (SEQ ID No. 6) (see Example 8) was used in this study. The vehicle control (phosphate buffered saline (PBS)) and IK248B dendrimer (20 mg/kg) were each administered by intra-tumoural injection once daily for five consecutive days, beginning on Day 0.
The vehicle control and IK248B dendrimer were administered at a dosing volume of 4.762 mL/kg (100 μL) based on a 21 g mouse. Each animal's body weight was measured immediately prior to dosing. The volume of dosing solution administered to each mouse was calculated and adjusted based on individual body weight.
Tumours were excised from all mice post mortem and weighed. Tumour volume was calculated using the equation:
V(mm^3)=length×diameter^2×p/6
ΔT/ΔC(%) was calculated using the following equation:
ΔT/ΔC(%)=(ΔvolumeTreatment/ΔVolumeControl)×100
where Δ=change in volume from day 0 to the final measurement day or nominated day of interest.
All statistical calculations were performed using SigmaStat 3.0 (SPSS Australasia, North Sydney, NSW, Australia). A two-sample t-test was used to determine the significance in body weight change within a treatment group between day 0 and day 4, and between day 0 and the termination day of the study. A One-Way Analysis of Variance (ANOVA) was performed on tumour volumes measured in all mice at the end of the study. Where significant differences were found in the data, the All Pairwise Multiple Comparison Procedures (Holm-Sidak Method) were performed. A two-sample t-test was used to show a significant difference between the tumour weight data for the vehicle control and Dend 10 10(4) treatment groups. A p value of less than 0.05 was considered significant.

CC(C)C[C@H](NC(=O)[C@@H]1CCCN1C(=O)[C@H](CC(N)=O)NC(=O)[C@H](CCCCN)NC(=O)[C@H](C)NC(=O)[C@H](CCCCN)NC(=O)[C@H](CO)NC(=O)[C@@H](N)CCCNC(=N)N)C(=O)N[C@@H](Cc1ccc(O)cc1)C(=O)N[C@@H](CCCNC(=N)N)C(=O)NCCCC[C@H](NC(=O)[C@H](CCCCNC(=O)[C@H](CCCCNC(=O)[C@H](CCCNC(=N)N)NC(=O)[C@H](Cc1ccc(O)cc1)NC(=O)[C@H](CC(C)C)NC(=O)[C@@H]1CCCN1C(=O)[C@H](CC(N)=O)NC(=O)[C@H](CCCCN)NC(=O)[C@H](C)NC(=O)[C@H](CCCCN)NC(=O)[C@H](CO)NC(=O)[C@@H](N)CCCNC(=N)N)NC(=O)[C@H](CCCNC(=N)N)NC(=O)[C@H](Cc1ccc(O)cc1)NC(=O)[C@H](CC(C)C)NC(=O)[C@@H]1CCCN1C(=O)[C@H](CC(N)=O)NC(=O)[C@H](CCCCN)NC(=O)[C@H](C)NC(=O)[C@H](CCCCN)NC(=O)[C@H](CO)NC(=O)[C@@H](N)CCCNC(=N)N)NC(=O)[C@H](CCCCNC(=O)[C@H](CCCNC(=N)N)NC(=O)[C@H](Cc1ccc(O)cc1)NC(=O)[C@H](CC(C)C)NC(=O)[C@@H]1CCCN1C(=O)[C@H](CC(N)=O)NC(=O)[C@H](CCCCN)NC(=O)[C@H](C)NC(=O)[C@H](CCCCN)NC(=O)[C@H](CO)NC(=O)[C@@H](N)CCCNC(=N)N)NC(=O)[C@H](CCCNC(=N)N)NC(=O)[C@H](Cc1ccc(O)cc1)NC(=O)[C@H](CC(C)C)NC(=O)[C@@H]1CCCN1C(=O)[C@H](CC(N)=O)NC(=O)[C@H](CCCCN)NC(=O)[C@H](C)NC(=O)[C@H](CCCCN)NC(=O)[C@H](CO)NC(=O)[C@@H](N)CCCNC(=N)N)C(=O)NCCCC[C@H](NC(=O)[C@H](CCCCNC(=O)[C@H](CCCNC(=N)N)NC(=O)[C@H](Cc1ccc(O)cc1)NC(=O)[C@H](CC(C)C)NC(=O)[C@@H]1CCCN1C(=O)[C@H](CC(N)=O)NC(=O)[C@H](CCCCN)NC(=O)[C@H](C)NC(=O)[C@H](CCCCN)NC(=O)[C@H](CO)NC(=O)[C@@H](N)CCCNC(=N)N)NC(=O)[C@H](CCCCNC(=O)[C@H](CCCCNC(=O)[C@H](CCCNC(=N)N)NC(=O)[C@H](Cc1ccc(O)cc1)NC(=O)[C@H](CC(C)C)NC(=O)[C@@H]1CCCN1C(=O)[C@H](CC(N)=O)NC(=O)[C@H](CCCCN)NC(=O)[C@H](C)NC(=O)[C@H](CCCCN)NC(=O)[C@H](CO)NC(=O)[C@@H](N)CCCNC(=N)N)NC(=O)[C@H](CCCNC(=N)N)NC(=O)[C@H](Cc1ccc(O)cc1)NC(=O)[C@H](CC(C)C)NC(=O)[C@@H]1CCCN1C(=O)[C@H](CC(N)=O)NC(=O)[C@H](CCCCN)NC(=O)[C@H](C)NC(=O)[C@H](CCCCN)NC(=O)[C@H](CO)NC(=O)[C@@H](N)CCCNC(=N)N)NC(=O)[C@H](CCCCNC(=O)[C@H](CCCNC(=N)N)NC(=O)[C@H](Cc1ccc(O)cc1)NC(=O)[C@H](CC(C)C)NC(=O)[C@@H]1CCCN1C(=O)[C@H](CC(N)=O)NC(=O)[C@H](CCCCN)NC(=O)[C@H](C)NC(=O)[C@H](CCCCN)NC(=O)[C@H](CO)NC(=O)[C@@H](N)CCCNC(=N)N)NC(=O)[C@H](CCCNC(=N)N)NC(=O)[C@H](Cc1ccc(O)cc1)NC(=O)[C@H](CC(C)C)NC(=O)[C@@H]1CCCN1C(=O)[C@H](CC(N)=O)NC(=O)[C@H](CCCCN)NC(=O)[C@H](C)NC(=O)[C@H](CCCCN)NC(=O)[C@H](CO)NC(=O)[C@@H](N)CCCNC(=N)N)C(=O)NCCC(N)=O [IK248B]
inhibition of proliferation of HT29 cells (MTT) (HT29 colon cancer cells; 48 hours culture with dendrimer): proliferation of the cells was inhibited; also recorded: more effective than dendrimer IK248
dendrimer concentration required for total kill (HT29 colon cancer cells; HT29 cells, 48 hours, MTT): 10 µM
tumour growth compared to vehicle only control ([1]; 20 mg/kg intra-tumoural once daily for five days): markedly inhibited
average tumour weight at the end of the study ([1]; 20 mg/kg intra-tumoural once daily for five days, Day 24, control 0.962 g): 0.437 g
dT/dC [%] ([1]; Day 0): 100.0%
Tumour volume, Delta avg ([1]; Day 0): 0.0 mm^3
Tumour volume, Average ([1]; Day 0 post-initial treatment): 68.0 mm^3
dT/dC [%] ([1]; Day 2): 134.3%
Tumour volume, Delta avg ([1]; Day 2): 68.6 mm^3
Tumour volume, Average ([1]; Day 2 post-initial treatment): 136.6 mm^3
dT/dC [%] ([1]; Day 4): 102.0%
Tumour volume, Delta avg ([1]; Day 4): 144.0 mm^3
Tumour volume, Average ([1]; Day 4 post-initial treatment): 211.9 mm^3
dT/dC [%] ([1]; Day 7): 68.1%
Tumour volume, Delta avg ([1]; Day 7): 180.6 mm^3
Tumour volume, Average ([1]; Day 7 post-initial treatment): 248.6 mm^3
dT/dC [%] ([1]; Day 11): 58.0%
Tumour volume, Delta avg ([1]; Day 11): 232.9 mm^3
Tumour volume, Average ([1]; Day 11 post-initial treatment): 300.9 mm^3
dT/dC [%] ([1]; Day 14): 44.6%
Tumour volume, Delta avg ([1]; Day 14): 255.9 mm^3
Tumour volume, Average ([1]; Day 14 post-initial treatment): 323.9 mm^3
dT/dC [%] ([1]; Day 16): 45.2%
Tumour volume, Delta avg ([1]; Day 16): 323.1 mm^3
Tumour volume, Average ([1]; Day 16 post-initial treatment): 391.0 mm^3
dT/dC [%] ([1]; Day 18): 47.1%
Tumour volume, Delta avg ([1]; Day 18): 408.9 mm^3
Tumour volume, Average ([1]; Day 18 post-initial treatment): 476.9 mm^3
dT/dC [%] ([1]; Day 21): 55.7%
Tumour volume, Delta avg ([1]; Day 21): 598.7 mm^3
Tumour volume, Average ([1]; Day 21 post-initial treatment): 601.5 mm^3
dT/dC [%] ([1]; Day 24): 54.5%
Tumour volume, Delta avg ([1]; Day 24): 710.4 mm^3
Tumour volume, Average ([1]; Day 24 post-initial treatment): 702.1 mm^3
